From ChEMBL document CHEMBL2177102, “Modulation of DNA repair by pharmacological inhibitors of the PIKK protein kinase family” (Bioorg Med Chem Lett, 2012)
pEC50, pIC50, pKi: −log10 of the molar value. Where “and” joins values, the source holds several entries; their conditions need not be identical. Equal entries are not always repeated. Each block holds one molecule with its values, some of them ahead of it.

Experiments:
[1] = biological target: T1, DNA-dependent protein kinase catalytic subunit (Homo sapiens, UniProt P78527); test: Inhibition of DNA-PK in human U1810 cells after 30 mins; type: cell-based
[2] = biological target: T1, DNA-dependent protein kinase catalytic subunit; test: Inhibition of DNA-PK
[3] = biological target: T1, DNA-dependent protein kinase catalytic subunit; test: Competitive inhibition of DNA-PK
[4] = biological target: T1, DNA-dependent protein kinase catalytic subunit; test: Inhibition of DNA-PK assessed as inhibition of p53 peptide phosphorylation
[5] = biological target: DNA-dependent protein kinase catalytic subunit (Mus musculus, UniProt P97313); test: Inhibition of DNA-PK in C57BL6 mouse endothelial cells; type: cell-based, Endothelial cell
[6] = biological target: Heat shock protein HSP 90-beta (Homo sapiens, UniProt P08238); test: Inhibition of Hsp90
[7] = Inhibition of PI3K
[8] = biological target: Serine/threonine-protein kinase ATR (Homo sapiens, UniProt Q13535); test: Inhibition of flag-tagged ATR expressed in HEK293T cells using PHAS-1 as substrate after 20 mins by autoradiography; set-up: species or system HEK-293T
[9] = biological target: Serine-protein kinase ATM (Homo sapiens, UniProt Q13315); test: Irreversible inhibition of ATM

T1 sequence (P78527 whole entry): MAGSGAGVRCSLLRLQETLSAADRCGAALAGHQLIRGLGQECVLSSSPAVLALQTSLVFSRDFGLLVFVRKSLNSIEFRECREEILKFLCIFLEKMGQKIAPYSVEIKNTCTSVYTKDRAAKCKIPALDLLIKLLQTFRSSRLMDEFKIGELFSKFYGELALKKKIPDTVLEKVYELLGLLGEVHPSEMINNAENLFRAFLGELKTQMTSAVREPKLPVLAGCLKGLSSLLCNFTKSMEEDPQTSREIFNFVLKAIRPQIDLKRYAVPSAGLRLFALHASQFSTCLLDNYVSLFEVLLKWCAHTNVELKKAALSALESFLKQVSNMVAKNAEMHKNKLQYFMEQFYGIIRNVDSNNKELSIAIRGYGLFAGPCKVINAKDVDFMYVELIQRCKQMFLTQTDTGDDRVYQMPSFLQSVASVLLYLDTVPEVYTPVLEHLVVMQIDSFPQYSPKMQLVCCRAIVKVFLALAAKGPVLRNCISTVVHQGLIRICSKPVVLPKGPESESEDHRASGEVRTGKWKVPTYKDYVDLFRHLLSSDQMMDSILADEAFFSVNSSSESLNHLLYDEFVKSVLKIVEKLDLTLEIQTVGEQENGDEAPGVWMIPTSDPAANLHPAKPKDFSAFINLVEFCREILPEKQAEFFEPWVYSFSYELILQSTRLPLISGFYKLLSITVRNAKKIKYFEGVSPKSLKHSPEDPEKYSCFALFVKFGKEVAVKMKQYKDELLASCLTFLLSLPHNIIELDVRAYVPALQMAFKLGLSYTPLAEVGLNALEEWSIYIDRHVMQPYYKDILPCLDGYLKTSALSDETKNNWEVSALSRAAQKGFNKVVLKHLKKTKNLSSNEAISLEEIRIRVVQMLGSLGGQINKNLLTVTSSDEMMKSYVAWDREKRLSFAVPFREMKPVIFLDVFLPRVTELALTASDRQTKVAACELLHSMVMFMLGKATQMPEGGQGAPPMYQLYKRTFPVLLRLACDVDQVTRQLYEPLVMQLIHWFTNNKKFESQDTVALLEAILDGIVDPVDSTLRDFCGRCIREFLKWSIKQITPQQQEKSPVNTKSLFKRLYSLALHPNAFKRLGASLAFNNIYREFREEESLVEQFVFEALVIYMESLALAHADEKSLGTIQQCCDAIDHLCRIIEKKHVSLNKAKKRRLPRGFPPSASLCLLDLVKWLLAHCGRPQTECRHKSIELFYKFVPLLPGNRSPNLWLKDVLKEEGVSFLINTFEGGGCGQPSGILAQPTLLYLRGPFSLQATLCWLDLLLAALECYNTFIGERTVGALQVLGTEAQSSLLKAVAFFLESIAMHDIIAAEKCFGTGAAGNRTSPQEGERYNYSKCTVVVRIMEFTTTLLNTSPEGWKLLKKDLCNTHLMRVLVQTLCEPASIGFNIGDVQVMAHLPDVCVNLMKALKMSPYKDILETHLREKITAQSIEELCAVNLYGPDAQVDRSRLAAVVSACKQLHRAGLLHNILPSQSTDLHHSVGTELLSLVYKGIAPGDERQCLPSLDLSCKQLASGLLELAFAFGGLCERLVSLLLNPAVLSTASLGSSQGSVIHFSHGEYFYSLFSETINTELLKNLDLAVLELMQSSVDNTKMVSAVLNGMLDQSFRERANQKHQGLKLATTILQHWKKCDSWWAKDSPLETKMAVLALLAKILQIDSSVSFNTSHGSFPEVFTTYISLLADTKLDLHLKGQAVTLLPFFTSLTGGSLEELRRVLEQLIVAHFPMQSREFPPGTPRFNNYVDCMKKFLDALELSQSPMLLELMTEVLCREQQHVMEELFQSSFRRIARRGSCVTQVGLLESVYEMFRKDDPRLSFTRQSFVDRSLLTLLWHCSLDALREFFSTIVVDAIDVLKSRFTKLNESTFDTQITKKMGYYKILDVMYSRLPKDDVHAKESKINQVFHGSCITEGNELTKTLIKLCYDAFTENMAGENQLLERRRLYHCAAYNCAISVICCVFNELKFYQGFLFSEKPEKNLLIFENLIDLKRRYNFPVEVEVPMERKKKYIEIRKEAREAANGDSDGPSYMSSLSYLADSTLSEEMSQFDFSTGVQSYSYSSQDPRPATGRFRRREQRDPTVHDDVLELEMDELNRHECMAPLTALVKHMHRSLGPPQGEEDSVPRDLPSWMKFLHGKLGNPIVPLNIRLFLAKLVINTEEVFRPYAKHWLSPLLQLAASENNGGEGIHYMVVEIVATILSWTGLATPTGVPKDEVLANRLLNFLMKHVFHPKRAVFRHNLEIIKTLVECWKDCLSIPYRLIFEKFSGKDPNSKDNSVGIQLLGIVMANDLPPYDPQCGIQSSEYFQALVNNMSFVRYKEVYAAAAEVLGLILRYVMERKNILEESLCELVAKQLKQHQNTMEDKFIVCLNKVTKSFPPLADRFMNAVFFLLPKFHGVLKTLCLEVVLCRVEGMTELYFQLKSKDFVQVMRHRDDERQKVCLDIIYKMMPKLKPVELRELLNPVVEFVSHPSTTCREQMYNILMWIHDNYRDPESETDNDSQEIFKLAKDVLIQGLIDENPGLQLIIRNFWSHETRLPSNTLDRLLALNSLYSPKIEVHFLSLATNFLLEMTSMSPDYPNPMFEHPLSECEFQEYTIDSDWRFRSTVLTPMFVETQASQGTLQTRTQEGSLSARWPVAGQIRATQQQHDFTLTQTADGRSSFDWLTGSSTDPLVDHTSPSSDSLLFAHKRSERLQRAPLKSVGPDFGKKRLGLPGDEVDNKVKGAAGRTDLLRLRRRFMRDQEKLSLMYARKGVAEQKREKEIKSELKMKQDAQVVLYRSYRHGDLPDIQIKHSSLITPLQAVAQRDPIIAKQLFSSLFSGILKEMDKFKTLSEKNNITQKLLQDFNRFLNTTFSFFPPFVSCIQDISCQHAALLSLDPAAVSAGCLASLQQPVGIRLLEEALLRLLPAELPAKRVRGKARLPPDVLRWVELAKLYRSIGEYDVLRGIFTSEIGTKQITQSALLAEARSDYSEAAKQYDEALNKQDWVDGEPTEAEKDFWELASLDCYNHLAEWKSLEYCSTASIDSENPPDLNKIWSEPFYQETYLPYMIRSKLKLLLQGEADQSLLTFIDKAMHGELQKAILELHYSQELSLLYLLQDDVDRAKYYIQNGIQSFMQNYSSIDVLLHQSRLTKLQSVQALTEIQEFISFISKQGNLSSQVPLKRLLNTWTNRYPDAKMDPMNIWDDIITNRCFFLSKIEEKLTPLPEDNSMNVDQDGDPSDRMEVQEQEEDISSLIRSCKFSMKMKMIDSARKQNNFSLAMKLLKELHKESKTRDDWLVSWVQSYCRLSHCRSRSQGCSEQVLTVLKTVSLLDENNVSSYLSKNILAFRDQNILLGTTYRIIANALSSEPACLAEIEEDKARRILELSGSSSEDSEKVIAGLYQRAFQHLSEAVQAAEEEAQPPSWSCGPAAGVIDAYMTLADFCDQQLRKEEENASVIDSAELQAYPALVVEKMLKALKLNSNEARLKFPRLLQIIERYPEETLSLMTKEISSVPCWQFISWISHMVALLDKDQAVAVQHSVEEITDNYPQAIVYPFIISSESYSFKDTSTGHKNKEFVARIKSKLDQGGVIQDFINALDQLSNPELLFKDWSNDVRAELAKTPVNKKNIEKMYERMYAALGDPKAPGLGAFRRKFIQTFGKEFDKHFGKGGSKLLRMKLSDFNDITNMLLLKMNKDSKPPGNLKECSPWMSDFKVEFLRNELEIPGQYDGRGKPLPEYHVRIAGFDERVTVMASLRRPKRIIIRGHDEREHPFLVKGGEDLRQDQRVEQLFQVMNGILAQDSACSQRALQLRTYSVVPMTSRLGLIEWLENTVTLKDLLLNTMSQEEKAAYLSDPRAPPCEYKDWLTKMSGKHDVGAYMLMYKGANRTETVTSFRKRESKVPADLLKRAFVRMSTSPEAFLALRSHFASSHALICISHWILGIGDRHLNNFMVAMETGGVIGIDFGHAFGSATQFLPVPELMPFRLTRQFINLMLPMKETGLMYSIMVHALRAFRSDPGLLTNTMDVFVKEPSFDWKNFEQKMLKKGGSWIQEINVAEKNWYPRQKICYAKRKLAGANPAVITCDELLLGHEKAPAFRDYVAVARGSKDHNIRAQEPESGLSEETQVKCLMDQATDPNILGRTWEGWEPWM
Chain of Heat shock protein HSP 90-beta (P08238 whole entry): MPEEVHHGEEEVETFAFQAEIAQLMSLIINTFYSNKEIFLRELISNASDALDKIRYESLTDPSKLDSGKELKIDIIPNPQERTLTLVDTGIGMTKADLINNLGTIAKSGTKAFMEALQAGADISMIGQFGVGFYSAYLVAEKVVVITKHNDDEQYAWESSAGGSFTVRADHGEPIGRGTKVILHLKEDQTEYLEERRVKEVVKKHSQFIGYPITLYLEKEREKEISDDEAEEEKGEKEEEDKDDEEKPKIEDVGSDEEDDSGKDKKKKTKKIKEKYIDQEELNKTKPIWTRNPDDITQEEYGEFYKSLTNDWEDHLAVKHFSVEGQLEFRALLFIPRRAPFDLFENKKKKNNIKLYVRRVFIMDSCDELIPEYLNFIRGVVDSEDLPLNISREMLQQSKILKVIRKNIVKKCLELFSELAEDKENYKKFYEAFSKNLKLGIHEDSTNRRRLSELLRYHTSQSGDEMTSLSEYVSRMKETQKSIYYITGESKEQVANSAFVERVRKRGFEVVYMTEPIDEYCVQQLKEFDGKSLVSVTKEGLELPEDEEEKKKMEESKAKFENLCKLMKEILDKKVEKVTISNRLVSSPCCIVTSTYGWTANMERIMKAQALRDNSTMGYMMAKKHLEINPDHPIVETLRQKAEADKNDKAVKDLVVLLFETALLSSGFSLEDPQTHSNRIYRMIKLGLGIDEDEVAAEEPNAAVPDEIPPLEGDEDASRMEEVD

Compound: CN1CCN(CCCN2c3ccccc3Sc3ccc(C(F)(F)F)cc32)CC1 [TRIFLUOPERAZINE]
pIC50 [1]: 4.00

Compound: CCc1[nH]c(/C=C2\C(=O)Nc3ccc(S(=O)(=O)Nc4ccccc4)cc32)c(CC)c1CCC(=O)O
pIC50 [3]: 6.89

Compound: O=c1cc(-c2ccccc2)oc2c(-c3ccccc3)c(N3CCOCC3)cc(O)c12
pIC50 [5]: 7.47

Compound: Cc1ccc2c(sc3ccccc32)c1-c1cccc2c(=O)cc(N3CCOCC3)oc12
pIC50 [2]: 5.92 and 5.60

Compound: CO[C@@H]1/C=C/C=C(\C)C(=O)NC2=CC(=O)C(NCCCCCCOc3ccc4c(=O)cc(N5CCOCC5)oc4c3)=C(C[C@@H](C)C[C@@H](OC)[C@@H](O)[C@H](C)/C=C(\C)[C@H]1OC(N)=O)C2=O (stereo in doubt)
pEC50 [6]: 5.40 | pIC50 [2]: 5.21 | pIC50 [7]: < 3.30

Compound: COc1cc2c(c(OC)c1OC)-c1c(cc3c(c1OC)OCO3)CC(C)C(C)C2 (stereo not drawn) [SCHISANDRIN B]
pIC50 [8]: 5.14

Compound: CC(=O)c1ccc(N2CCOCC2)cc1O
pIC50 [5]: 6.92

Compound: C=C1C(=O)OCC1(C(=O)OCC)C(=O)OCC
pIC50 [9]: 6.60

Compound: COc1cc(C=O)c([N+](=O)[O-])cc1OC
pIC50 [4]: 4.82

Compound: CS(=O)(=O)c1ccc(-c2cnc(N)c(C(=O)Nc3ccccc3)n2)cc1
pIC50 [2]: 7.59

Compound: COc1cc(Br)c(C=O)cc1OC
pIC50 [4]: 4.52

The remaining lines, values ahead:

pKi [2]: 8.22
Compound: CC(CN(C)C)S(=O)(=O)c1ccc(-c2cnc(N)c(C(=O)Nc3ccccc3)n2)cc1 (stereo not drawn)

pIC50 [3]: 5.10
Compound: N#Cc1cc(-c2ccncc2)c(/C=N/N)nc1O

pIC50 [4]: 2.82
Compound: COc1cc(C=O)ccc1O [VANILLIN]

pIC50 [3]: 6.21
Compound: Nc1ncc(-c2ccccc2)nc1C(=O)Nc1ccccc1

pIC50 [9]: 6.22
Compound: C=C1C(=O)OC[C@@H]1C(=O)N1Cc2cc3ccccc3nc2C1
